Experimental data: ChEMBL document CHEMBL5143678, “Identification of Antithrombotic Natural Products Targeting the Major Substrate Binding Pocket of Protein Disulfide Isomerase” (J Nat Prod, 2022)
Calls of active or inactive are those of the source. No cut-off for these calls is given here.

How the values were obtained:
[1] = biological target: T1, Protein disulfide-isomerase (Homo sapiens, UniProt P07237); assay: Binding affinity to recombinant His-tagged full length human PDI-b' x domain substrate binding pocket expressed in Escherichia coli BL21 (DE3) cells assessed as decrease in fluorescence intensity at 100 uM incubated for 10 mins by tryptophan fluorescence based assay
Target sequence in this assay (P07237 18-508 limits assumed): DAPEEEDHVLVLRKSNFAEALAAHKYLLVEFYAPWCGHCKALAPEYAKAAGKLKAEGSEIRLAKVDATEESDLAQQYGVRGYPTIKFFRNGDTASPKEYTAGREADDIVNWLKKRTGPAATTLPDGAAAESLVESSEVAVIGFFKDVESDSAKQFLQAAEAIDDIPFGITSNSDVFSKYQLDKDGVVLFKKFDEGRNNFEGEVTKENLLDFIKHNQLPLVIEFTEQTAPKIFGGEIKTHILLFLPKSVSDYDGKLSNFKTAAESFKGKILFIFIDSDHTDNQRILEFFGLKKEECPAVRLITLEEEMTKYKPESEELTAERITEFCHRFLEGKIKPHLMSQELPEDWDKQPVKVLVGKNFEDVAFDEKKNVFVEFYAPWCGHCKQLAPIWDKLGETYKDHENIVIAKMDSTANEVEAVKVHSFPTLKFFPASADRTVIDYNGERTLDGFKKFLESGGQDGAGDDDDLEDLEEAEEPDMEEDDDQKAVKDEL

[2] = biological target: T1, Protein disulfide-isomerase; assay: Binding affinity to recombinant His-tagged full length human PDI-b' x domain substrate binding pocket expressed in Escherichia coli BL21 (DE3) cells assessed as inhibition constant at 100 uM incubated for 10 mins by tryptophan fluorescence based assay
Target sequence in this assay (P07237 whole entry): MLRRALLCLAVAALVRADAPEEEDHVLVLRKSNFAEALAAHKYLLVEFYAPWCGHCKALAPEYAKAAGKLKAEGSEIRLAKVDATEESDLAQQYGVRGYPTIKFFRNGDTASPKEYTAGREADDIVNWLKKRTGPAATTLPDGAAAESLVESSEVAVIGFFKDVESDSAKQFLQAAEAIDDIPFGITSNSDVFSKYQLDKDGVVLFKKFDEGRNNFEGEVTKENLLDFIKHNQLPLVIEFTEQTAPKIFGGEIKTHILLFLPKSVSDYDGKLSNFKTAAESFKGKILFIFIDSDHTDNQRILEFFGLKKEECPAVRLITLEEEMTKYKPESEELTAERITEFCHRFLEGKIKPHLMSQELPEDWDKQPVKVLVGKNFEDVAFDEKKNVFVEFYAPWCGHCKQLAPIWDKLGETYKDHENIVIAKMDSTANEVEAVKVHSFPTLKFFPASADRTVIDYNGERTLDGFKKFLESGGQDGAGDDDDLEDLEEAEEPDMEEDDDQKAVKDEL

[3] = biological target: T1, Protein disulfide-isomerase; assay: Inhibition of recombinant His-tagged full length human PDI reductase activity assessed as inhibition of PDI/DTT-mediated cleavage of disulfide bond in insulin at 100 uM incubated for 40 mins by spectrophotometric analysis
Target sequence in this assay (P07237 18-508 limits assumed): as the sequence (P07237 18-508 limits assumed) above

[4] = biological target: T1, Protein disulfide-isomerase; assay: Inhibition of recombinant His-tagged full length human PDI reductase activity assessed as inhibition of PDI/DTT-mediated cleavage of disulfide bond in insulin in the presence of DTT incubated for 40 mins by spectrophotometric analysis; conditions: dose 100-200 µM, DDE = dose-dependent effect
Target sequence in this assay (P07237 18-508 limits assumed): as above

[5] = biological target: T2, Protein disulfide-isomerase A6 (Homo sapiens) (UniProt Q15084); assay: Inhibition of ERp5 (unknown origin) reductase activity assessed as inhibition of PDI/DTT-mediated cleavage of disulfide bond in insulin in the presence of DTT incubated for 40 mins by spectrophotometric analysis; conditions: dose 100-200 µM, DDE = dose-dependent effect
T2 sequence (whole entry): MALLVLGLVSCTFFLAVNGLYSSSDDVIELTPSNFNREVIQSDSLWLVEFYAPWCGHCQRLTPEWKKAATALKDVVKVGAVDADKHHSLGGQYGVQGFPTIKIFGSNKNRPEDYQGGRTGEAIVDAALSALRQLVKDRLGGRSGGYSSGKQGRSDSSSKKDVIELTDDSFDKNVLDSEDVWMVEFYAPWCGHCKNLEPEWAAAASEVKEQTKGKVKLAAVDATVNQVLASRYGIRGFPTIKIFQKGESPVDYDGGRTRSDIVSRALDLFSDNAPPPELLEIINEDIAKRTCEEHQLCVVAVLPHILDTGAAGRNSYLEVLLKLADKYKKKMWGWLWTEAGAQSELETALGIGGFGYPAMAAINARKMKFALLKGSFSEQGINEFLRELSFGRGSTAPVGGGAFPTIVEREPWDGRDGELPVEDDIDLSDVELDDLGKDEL

[6] = biological target: T3, Protein disulfide-isomerase A3 (Homo sapiens) (UniProt P30101); assay: Inhibition of ERp57 (unknown origin) reductase activity assessed as inhibition of PDI/DTT-mediated cleavage of disulfide bond in insulin in the presence of DTT incubated for 40 mins by spectrophotometric analysis; conditions: dose 100-200 µM, DDE = dose-dependent effect
T3 sequence (whole entry): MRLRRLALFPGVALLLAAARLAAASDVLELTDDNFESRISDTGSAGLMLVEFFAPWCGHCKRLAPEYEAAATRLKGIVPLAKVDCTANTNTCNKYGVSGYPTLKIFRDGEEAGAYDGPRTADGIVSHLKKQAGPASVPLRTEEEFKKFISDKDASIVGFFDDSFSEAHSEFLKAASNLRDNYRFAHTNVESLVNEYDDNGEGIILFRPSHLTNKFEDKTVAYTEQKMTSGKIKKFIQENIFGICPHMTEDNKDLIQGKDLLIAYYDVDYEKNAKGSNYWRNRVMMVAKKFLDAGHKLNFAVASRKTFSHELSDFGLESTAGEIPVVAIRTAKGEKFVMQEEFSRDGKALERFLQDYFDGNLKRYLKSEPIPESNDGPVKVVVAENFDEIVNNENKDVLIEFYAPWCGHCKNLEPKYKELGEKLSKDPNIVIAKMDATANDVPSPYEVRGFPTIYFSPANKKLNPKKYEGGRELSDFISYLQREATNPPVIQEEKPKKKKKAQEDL

[7] = biological target: T4, Protein disulfide-isomerase A4 (Homo sapiens) (UniProt P13667); assay: Inhibition of ERp72 (unknown origin) reductase activity assessed as inhibition of PDI/DTT-mediated cleavage of disulfide bond in insulin in the presence of DTT incubated for 40 mins by spectrophotometric analysis; conditions: dose 100-200 µM, DDE = dose-dependent effect
T4 sequence (whole entry): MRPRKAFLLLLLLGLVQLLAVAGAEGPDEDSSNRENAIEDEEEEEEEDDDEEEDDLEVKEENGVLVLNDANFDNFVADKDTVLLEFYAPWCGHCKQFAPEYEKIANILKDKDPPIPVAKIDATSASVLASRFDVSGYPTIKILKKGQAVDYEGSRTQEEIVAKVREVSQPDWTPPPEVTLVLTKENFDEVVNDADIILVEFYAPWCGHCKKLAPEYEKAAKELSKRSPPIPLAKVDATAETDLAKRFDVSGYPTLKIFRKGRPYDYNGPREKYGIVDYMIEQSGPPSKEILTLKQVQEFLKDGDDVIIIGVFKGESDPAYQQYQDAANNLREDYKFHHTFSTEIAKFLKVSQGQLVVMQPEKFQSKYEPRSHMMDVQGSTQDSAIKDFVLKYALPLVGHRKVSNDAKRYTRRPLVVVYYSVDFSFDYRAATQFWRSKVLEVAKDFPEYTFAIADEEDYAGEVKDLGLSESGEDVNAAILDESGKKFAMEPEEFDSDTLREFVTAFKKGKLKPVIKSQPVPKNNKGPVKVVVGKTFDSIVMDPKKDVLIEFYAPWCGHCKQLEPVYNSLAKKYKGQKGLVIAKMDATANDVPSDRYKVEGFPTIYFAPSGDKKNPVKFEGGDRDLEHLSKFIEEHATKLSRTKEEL

Mus musculus [8] = assay: Antithrombotic activity in anesthetized ICR mouse model of electrically-induced carotid artery thrombosis assessed as delay in occlusion time at 30 mg/kg, iv; assay type: functional, organism-based
Mus musculus [9] = assay: Antithrombotic activity in anesthetized ICR mouse model of electrically-induced carotid artery thrombosis assessed as inhibition of thrombosis formation by measuring increase in bleeding time at 30 mg/kg, iv; assay type: functional, organism-based
[10] = Toxicity in anesthetized ICR mouse model of electrically-induced carotid artery thrombosis assessed as thrombus formation by measuring blood loss in tail at 30 mg/kg, iv; assay type: organism-based; conditions: in vivo

Compound	Activity [1]	Ki [2] [µM]	inhibition [3]	other results
COc1cc(C=O)ccc1OC(C)=O	Active	309	Active	
NC(CO)C(=O)NNCc1ccc(O)c(O)c1O (centres undefined)	Active			
O=C(Nc1ccccc1)c1ccccc1O	Active			
O=C(/C=C/c1ccc(O)cc1)c1ccc(O)cc1O [ISOLIQUIRITIGENIN]	Active	36.1	Active	

Second part, led by results:

Activity [1]	Ki [2] [µM]	inhibition [3]	Compound	other results
Active			O=c1c(O)c(-c2ccccc2)oc2ccccc12	
Active	5.9	Active	O=c1c(O)c(-c2ccccc2)oc2cc(O)cc(O)c12 [GALANGIN]	inhibition [4]: Dde; inhibition [5]: Dde; inhibition [6]: Dde; inhibition [7]: Dde; Activity (Mus musculus [8]): Active; Activity (Mus musculus [9]): Active; Activity [10]: Non-Toxic
